Data taken from publication PMC10000267, “ALA‐A2 Is a Novel Anticancer Peptide Inspired by Alpha‐Lactalbumin: A Discovery from a Computational Peptide Library, In Silico Anticancer Peptide Screening and In Vitro Experimental Validation” (Global Challenges, 2023).
Residues, ends and D or L forms follow the SMILES beside them.

Tests used:
[1] = system: A549 lung adenocarcinoma cells; assay: In vitro cancer cytotoxicity (MTT assay); type: cell-based, human; conditions: 24 h
Procedure: (§1) All cell lines were obtained from the American Type Culture Collection (ATCC, Manassas, VA, USA). The A549 lung adenocarcinoma (ATCC CCL‐185TM), MDA‐MB‐231 triple‐negative breast adenocarcinoma (ATCC HTB‐26TM), and SH‐SY5Y neuroblastoma (ATCC CRL‐2266TM) cell lines were cultured in Dulbecco's Modified Eagle's Medium (DMEM)‐high glucose (Gibco, Thermo Fisher Scientific, MA, USA). HT29 colon adenocarcinoma (ATCC HTB‐38) cell lines were maintained in DMEM/Nutrient Mixture F‐12 (Gibco). K562 chronic myeloid leukemia (ATCC CRL‐3344) were grown in Roswell Park Memorial Institute Medium 1640 (Gibco). The cells were cultured in medium supplemented with 10% fetal bovine serum (Gibco) and 1× penicillin/streptomycin (Gibco) and incubated in a 5% CO2 incubator with saturated humidity.
(§2) The protocol previously described by Chiangjong et al. and Baindara et al.^[ [5], [29] ^] was modified for use in determining the cytotoxicity of peptides on the various cancer types. Adherent cells were seeded at 1 × 10^4 cells/well into a 96‐well plate 24 h prior to replacing the media containing the peptide of interest. Suspended cells were seeded at 1 × 10^4 cells/well in the media containing the peptide of interest. Five human cell lines, including lung cancer (A549), colon cancer (HT29), breast cancer (MDA‐MB‐231), neuroblastoma (SH‐SY5Y), and leukemia (K562) cells, were treated with the culture media containing the peptides at 200 µM for 24 h. Cell viability was then determined using Cell Proliferation Kit I, MTT (Roche Diagnostics GmbH, Mannheim, Germany): MTT labeling reagent (10 µL) was added to each well and incubated at 37 °C in a 5% CO2 atmosphere for 4 h. After incubation, 100 µL solubilizing solution was added to each well and incubated at 37 °C in 5% CO2 overnight. The absorbance at 570 nm (A 570) was measured for each well. The percentage of cell viability was calculated as: (1) % Cell Viability=[A570 of treated cells − A570 of media/A570 of untreated cells−A570 of media] × 100
(§3) To evaluate dose‐dependency, ≈1 × 10^4 cells/well were cultured in media containing ALA‐A2 at 0, 6.25, 12.5, 25, 50, 100, 200, and 400 µM in a 96‐well plate for 24 h. Cell viability was determined by the MTT assay, as above.

[2] = system: HT29 colon adenocarcinoma cells; assay: In vitro cancer cytotoxicity (MTT assay); type: cell-based, human; conditions: 24 h
Procedure: as §1, §2, §3

K562 leukemia cells = assay: In vitro cancer cytotoxicity (MTT assay); type: cell-based, human; conditions: K562, peptide 200 µM, 24 h
Procedure: as §1, §2

[3] = system: MDA‐MB‐231 breast cancer cells; assay: In vitro cancer cytotoxicity (MTT assay); type: cell-based, human; conditions: MDA‐MB‐231, peptide 200 µM, 24 h
Procedure: as §1, §2

[4] = system: SH‐SY5Y neuroblastoma cells; assay: In vitro cancer cytotoxicity (MTT assay); type: cell-based, human; conditions: peptide 200 µM, 24 h
Procedure: as §1, §2

Human red blood cells = assay: Ex vivo hemolysis assay (RBC lysis assay); type: cell-based; conditions: ≈0.8% v/v human RBC suspension in 0.9% normal saline, peptide 200 µM, 1 h, room temperature, absorbance 415 nm, relative to 1% Triton X‐100; blood of three healthy individuals, mean ± SD
Procedure: The hemolysis assay was as described previously.^[ [30] ^] After informed consent, peripheral blood (3 mL) was collected from three healthy individuals into heparin tubes (BD Biosciences, NJ, USA). The specimen was centrifuged at 2000 × g for 5 min at room temperature, and the plasma was discarded. The RBCs were washed twice with PBS and then resuspended in 0.9% normal saline solution at a volume equivalent to that of the original plasma. Approximately 0.8% v/v RBC suspension was incubated with the peptides at 200 µM (100 µL final volume) in a U‐bottom 96‐well plate at room temperature for 1 h with agitation. 1% v/v Triton X‐100 was applied as a positive control. The untreated condition served as the blank control. After 1 h incubation, the supernatants were collected by centrifuging at 2000 × g for 5 min at room temperature. The absorbance of hemoglobin in the supernatant was measured at 415 nm. The hemolysis percentage was calculated as follows: (2) % Hemolysis = [sample absorbance−blank control/positive control−blank control] × 100

A549 cells = assay: Autophagy activity assay; type: cell-based, human; conditions: A549, 200 µM, 24 h; autophagosome/autophagolysosome signal normalised to nuclear signal; three biological replicates
Procedure: A549 cells (1 × 10^4 cells/well in a 96‐well plate) were treated with 200 µM ALA‐A2. Treated cells were maintained for 24 h before determining autophagy activity using an autophagy assay kit (ab139484, Abcam, Milpitas, CA). To prepare for the staining, the media was removed, and the cells were washed once with 1× assay buffer. The dual color detection solution was added to the wells and incubated for 30 min. The cells were washed and 1× assay buffer added to each well. The nuclear signal was excitation of 340 nm and […], whereas autophagosomes and autophagolysosomes were detected by excitation of 480 nm and emission of 530 nm. Autophagy activity was calculated by normalizing the autophagosome/autophagolysosome signal to the nuclear signal. Rapamycin (2 µM), a known autophagy inducer, was the positive control.^[ [33] ^] This experiment was performed in three biological replicates.

## CC(C)C[C@H](NC(=O)[C@@H](N)CCCCN)C(=O)N[C@@H](Cc1c[nH]c2ccccc12)C(=O)N[C@@H](CS)C(=O)N[C@@H](CCCCN)C(=O)N[C@@H](CO)C(=O)N[C@@H](CO)C(=O)N[C@@H](CCC(N)=O)C(=O)N[C@H](C(=O)N1CCC[C@H]1C(=O)N[C@@H](CCC(N)=O)C(=O)N[C@@H](CO)C(=O)N[C@@H](CCCNC(=N)N)C(=O)O)C(C)C [ALA‐A2] (H-KLWCKSSQVPQSR-OH)
[1]; A549, peptide 200 µM, 37 °C, A570, mean ± SD, three biological replicates
  cell viability: 59.7 ± 1.1 % cell viability
[1]; A549, twofold serial dilutions 0 to 400 µM
  IC50: ~300 µM
[2]; HT29, peptide 200 µM, 37 °C, A570, mean ± SD, three biological replicates
  cell viability: 55.3 ± 2.7 % cell viability
[2]; HT29, twofold serial dilutions 0 to 400 µM, extrapolated beyond the tested range
  IC50: > 1000 µM
K562 leukemia cells
  anticancer effect (in words): did not affect
[3]
  anticancer effect (in words): did not affect
[4]
  anticancer effect (in words): did not affect
Human red blood cells
  percent hemolysis: 7.8% ± 10.2%
A549 cells
  autophagic activity: 1.5 fold of untreated cells
